Values joined by “and” are separate entries in the source; they are usually repeats but may differ in a detail not shown here. Equal values may be shown once. Numbered stars: 1 amine (or outer) side, 2 acyl side, 3 side chain; on linkers, the order of the positions; unused ones are H or OH. Square brackets hold non-standard residues; d marks the D form. Peptide text beside a SMILES is read from it. X1 = O=C(c1ccc(-c2ccc(N3CCNCC3)cc2)c(CN[*:1])c1)[*:2]
Legend:
[1] = biological target: integrin α4β1 (Homo sapiens, UniProt P05556+P13612); test: Integrin α4β1-VCAM human cell adhesion assay (RAMOS cells); type: cell-based; design: host or cells: RAMOS human cells; details: adhesion of RAMOS cells to VCAM-1 coated plates
Method: Integrin α4β1-VCAM Human Cell Adhesion Assay
RAMOS human cells (ATCC CRL-1596) were cultured in RPMI 1640 medium (HyClone SH30027.1) supplemented with 10% FBS (Seradigm) and 1% Penicillin-Streptomycin. A 96-well plate (Costar, 3603) was coated with 100 μl/well of recombinant human VCAM-1 Fc Chimera (R&D systems, 862-VC-100) solution at 0.25 μg/ml in coating buffer (50 mM sodium carbonate, pH 9.6). The plate was incubated overnight at 4° C. and washed twice with […] per well wash buffer (0.05% Tween 20 in PBS), blocked with 250 μl per well blocking buffer (1% non-fat dry milk in PBS), for 1 hour at room temperature. During blocking step, RAMOS cells were resuspended at 10 million cells/ml in PBS containing […] and incubated at 37° C. for 30 min in a 50 ml tube. PBS was added to fill the tube, cells were spun down and resuspended in RPMI 1640 medium to 2 million/mi. Compounds were diluted by serial dilution in binding buffer (1.5 mM CaCl2, 0.5 mM MnCl2, 50 mM Tris-HCl, pH 7.5) to a final volume of 50 μl per well at 2× concentration. […] After last wash, 100 μL of PBS was added to wells and the fluorescence was read (Ex495/Em515) using a plate reader (Tecan Infinite 1000). To calculate the dose response, the fluorescence value of control wells not containing cells was subtracted from each test well.

[2] = biological target: T1, integrin α4β7 (Homo sapiens, UniProt P13612+P26010); test: Integrin α4β7-MAdCAM human cell adhesion assay (RPMI8866 cells); type: cell-based; design: host or cells: RPMI8866 human cells; details: for IC50: adhesion of RPMI8866 cells to MAdCAM-1 coated plates
T1 sequence (P13612 34-1032): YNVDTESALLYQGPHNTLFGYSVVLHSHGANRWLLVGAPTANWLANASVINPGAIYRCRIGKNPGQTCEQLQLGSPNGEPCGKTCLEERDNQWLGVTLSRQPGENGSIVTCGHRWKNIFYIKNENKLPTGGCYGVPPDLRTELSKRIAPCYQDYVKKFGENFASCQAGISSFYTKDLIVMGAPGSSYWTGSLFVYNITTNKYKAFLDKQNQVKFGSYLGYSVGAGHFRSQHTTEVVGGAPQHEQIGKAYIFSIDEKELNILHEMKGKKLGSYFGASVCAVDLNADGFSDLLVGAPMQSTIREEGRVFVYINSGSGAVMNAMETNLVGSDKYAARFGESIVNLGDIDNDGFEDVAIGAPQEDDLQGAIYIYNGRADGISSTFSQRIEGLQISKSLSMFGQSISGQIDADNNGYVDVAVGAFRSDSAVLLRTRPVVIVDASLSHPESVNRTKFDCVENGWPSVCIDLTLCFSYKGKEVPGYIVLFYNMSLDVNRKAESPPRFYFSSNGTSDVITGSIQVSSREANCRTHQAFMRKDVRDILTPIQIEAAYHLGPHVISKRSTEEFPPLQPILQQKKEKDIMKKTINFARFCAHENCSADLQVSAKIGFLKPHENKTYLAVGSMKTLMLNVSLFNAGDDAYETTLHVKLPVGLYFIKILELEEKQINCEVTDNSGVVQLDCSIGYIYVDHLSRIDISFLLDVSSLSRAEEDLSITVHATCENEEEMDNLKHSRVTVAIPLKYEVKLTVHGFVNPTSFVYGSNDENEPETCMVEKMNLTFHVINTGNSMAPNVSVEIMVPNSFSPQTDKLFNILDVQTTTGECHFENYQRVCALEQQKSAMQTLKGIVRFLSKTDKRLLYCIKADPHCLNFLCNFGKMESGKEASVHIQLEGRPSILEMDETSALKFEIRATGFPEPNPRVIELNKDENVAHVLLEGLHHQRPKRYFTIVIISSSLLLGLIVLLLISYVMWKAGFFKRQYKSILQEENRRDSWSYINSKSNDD
T1 sequence (P26010 20-798): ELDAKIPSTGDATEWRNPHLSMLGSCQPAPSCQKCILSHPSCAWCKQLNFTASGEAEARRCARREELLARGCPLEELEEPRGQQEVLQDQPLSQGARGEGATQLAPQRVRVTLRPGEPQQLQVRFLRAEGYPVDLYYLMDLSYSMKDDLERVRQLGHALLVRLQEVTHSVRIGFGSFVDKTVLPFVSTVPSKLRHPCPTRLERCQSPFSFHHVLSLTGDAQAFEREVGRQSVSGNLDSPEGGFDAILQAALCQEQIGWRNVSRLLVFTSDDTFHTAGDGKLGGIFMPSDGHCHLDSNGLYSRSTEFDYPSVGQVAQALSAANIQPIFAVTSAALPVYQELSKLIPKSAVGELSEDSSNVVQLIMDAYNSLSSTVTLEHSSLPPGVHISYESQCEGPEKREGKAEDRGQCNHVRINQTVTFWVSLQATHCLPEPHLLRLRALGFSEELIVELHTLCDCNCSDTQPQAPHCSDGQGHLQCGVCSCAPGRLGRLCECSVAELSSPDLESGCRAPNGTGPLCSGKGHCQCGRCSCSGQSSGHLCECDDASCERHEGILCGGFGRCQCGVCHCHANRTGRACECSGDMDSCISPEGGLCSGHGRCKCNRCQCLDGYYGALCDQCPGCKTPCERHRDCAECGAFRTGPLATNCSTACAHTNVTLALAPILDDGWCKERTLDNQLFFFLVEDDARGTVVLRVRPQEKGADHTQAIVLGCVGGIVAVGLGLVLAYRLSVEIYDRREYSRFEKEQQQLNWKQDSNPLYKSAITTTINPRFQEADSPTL
Method: RPM18866 human cells (Sigma #95041316) were cultured in RPMI 1640 medium (HyClone SH30027.1) supplemented with 10% FBS (Seradigm) and 1% Penicillin-Streptomycin. […] RPM18866 cells were resuspended at 10 million cells/ml in PBS containing […] and incubated at 37° C. for 30 min in a 50 ml tube. […] The plate was emptied by inverting and blotting on paper towels and washed manually twice with PBS. 100 μl PBS was then added to each well. The fluorescence was read (Ex495/Em515) using a plate reader (Tecan Infinite 1000). To calculate the dose response, the fluorescence value of control wells not containing cells was subtracted from each test well.

Sequence of integrin α4β1 (P05556 21-798, one chain of several): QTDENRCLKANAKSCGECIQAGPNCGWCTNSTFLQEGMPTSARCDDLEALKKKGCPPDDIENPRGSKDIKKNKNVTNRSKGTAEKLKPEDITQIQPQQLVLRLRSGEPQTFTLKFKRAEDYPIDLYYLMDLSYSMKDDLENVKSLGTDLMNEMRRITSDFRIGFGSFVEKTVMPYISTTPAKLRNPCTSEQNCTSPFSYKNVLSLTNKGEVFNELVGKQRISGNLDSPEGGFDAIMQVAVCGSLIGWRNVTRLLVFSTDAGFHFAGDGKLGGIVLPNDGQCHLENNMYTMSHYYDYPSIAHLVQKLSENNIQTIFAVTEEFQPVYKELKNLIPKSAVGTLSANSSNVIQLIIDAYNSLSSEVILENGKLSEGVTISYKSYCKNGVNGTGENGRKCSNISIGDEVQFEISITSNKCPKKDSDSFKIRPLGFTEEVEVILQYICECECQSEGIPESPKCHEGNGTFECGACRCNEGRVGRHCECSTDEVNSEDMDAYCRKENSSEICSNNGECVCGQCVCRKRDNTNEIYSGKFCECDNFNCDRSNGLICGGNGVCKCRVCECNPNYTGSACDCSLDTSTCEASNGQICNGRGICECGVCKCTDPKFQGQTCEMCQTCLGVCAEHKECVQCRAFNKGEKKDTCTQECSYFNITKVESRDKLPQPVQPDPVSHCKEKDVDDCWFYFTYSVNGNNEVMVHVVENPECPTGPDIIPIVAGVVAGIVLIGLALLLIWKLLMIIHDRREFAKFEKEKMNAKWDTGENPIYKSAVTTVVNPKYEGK

CC(C)C[C@@H]1NC(=O)c2ccc(-c3ccc(N4CCNCC4)cc3)c(c2)CNC(=O)[C@@H]2CCCN2C(=O)[C@H](C)NC(=O)[C@H]([C@@H](C)O)NC(=O)[C@H](CC(=O)O)NC1=O [Compound 8] (cyclo(P[X1]LDTA))
IC50 [1]: ~0.451 µM and 0.451 µM | fold difference in IC50 between RAMOS and RPMI8866 cell adhesion assays, in favor of integrin α4β7 ([2]; RAMOS (α4β1) versus RPMI8866 (α4β7)): 2.2 fold | IC50 [2]: ~0.202 µM and 0.202 µM

CC(C)C[C@@H]1NC(=O)c2ccc(-c3ccc(N4CCN(Cc5cccc(CN6CCN(c7ccc(-c8ccc9cc8CNC(=O)[C@@H]8CCCN8C(=O)[C@H](C)NC(=O)[C@H]([C@@H](C)O)NC(=O)[C@H](CC(=O)O)NC(=O)[C@H](CC(C)C)NC9=O)cc7)CC6)c5)CC4)cc3)c(c2)CNC(=O)[C@@H]2CCCN2C(=O)[C@H](C)NC(=O)[C@H]([C@@H](C)O)NC(=O)[C@H](CC(=O)O)NC1=O [Compound 18]
IC50 [1]: 0.184 µM | IC50 [2]: 0.0084 µM

CC(C)C[C@@H]1NC(=O)c2ccc(-c3ccc(N4CCN(C(=O)COCC(=O)N5CCN(c6ccc(-c7ccc8cc7CNC(=O)[C@@H]7CCCN7C(=O)[C@H](C)NC(=O)[C@H]([C@@H](C)O)NC(=O)[C@H](CC(=O)O)NC(=O)[C@H](CC(C)C)NC8=O)cc6)CC5)CC4)cc3)c(c2)CNC(=O)[C@@H]2CCCN2C(=O)[C@H](C)NC(=O)[C@H]([C@@H](C)O)NC(=O)[C@H](CC(=O)O)NC1=O [Compound 17]
IC50 [2]: ~0.019 µM

— patent US11286281B2, “Homodetic cyclic peptides targeting alpha-4-beta-7 integrin” (priority 2017, dated 2022)
